Data: US20250129048A1, “MELANOCORTIN 4 RECEPTOR ANTAGONISTS AND USES THEREOF” (Pfizer Inc., priority 2021, published 2025)

Tests used:
[1] = biological target: human Melanocortin-4 receptor (MC4R) (Homo sapiens (Human), UniProt P32245); assay: Functional in vitro MC4R antagonist potency assay (intracellular cAMP, HTRF, CHO cells); type: cell-based; settings: cAMP after EC80 agonist stimulation (200 nM αMSH); Kb from IC50 by Leff-Dougall equation; read-out: Kb (nM) Antagonist geometric mean
Experimental: The functional in vitro antagonist potency for test compounds was determined by monitoring intracellular cyclic adenosine monophosphate (cAMP) levels in Chinese hamster ovary (CHO—) cells stably expressing the human Melanocortin-4 receptor (MC4R). Following agonist activation, human MC4R associates with the G-protein complex causing the Ga subunit to exchange bound GDP for GTP, followed by dissociation of the Gα-GTP complex. The activated Ga subunit can couple to downstream effectors to regulate the levels of second messengers or cAMP within the cell. Thereby, determination of intracellular cAMP levels allows for pharmacological characterization. Intracellular cAMP levels are quantitated using a homogenous assay utilizing the Homogeneous Time-Resolved Fluorescence (HTRF) technology from CisBio. The method is a competitive immunoassay between native cAMP produced by cells and the cAMP labelled with the acceptor dye, d2. The two entities then compete for binding to a monoclonal anti-cAMP antibody labeled with cryptate. The specific signal is inversely proportional to the concentration of cAMP in the cells.
Test compounds were solubilized to 30 mM in 100% dimethyl sulfoxide (DMSO) and stored. An 11-point dilution series using 1 in 3 162-fold serial dilutions was created in 100% DMSO with a top concentration of 800 μM. The serially diluted compound was spotted into a 384-well plate (Greiner, Cat No. 781280) at 40 nL/well with duplicate points at each concentration, and then diluted 1 in 1000 with 40 μL assay buffer containing HBSS, 20 mM HEPES (Invitrogen), 0.1% BSA, and 250 μM IBMX (Sigma Aldrich) to create an intermediate plate at 2× final assay concentration (FAC). The final compound concentration range in the assay was 400 nM to […], with a final DMSO concentration of 0.1%.
In-house generated CHO cells stably expressing the Gs-coupled human MC4R receptor were plated in 384-well assay plates (Corning, Cat No. 3570) in 50 μL/well of Ham's F-12 containing 10% heat inactivated FBS, 1× penicillin/streptomycin, 1 mM Glutamax (Invitrogen) at a density of 2,500 cells per well and incubated at 37° C. (95% O2: 5% CO2) overnight, with micro-clime lids (Labcyte, Cat No. LLS-0310). On day of assay, media was removed from the assay plate through gentle flicking and blotting plate on a paper towel and replaced with 5 μL of 2× antagonist compound in assay buffer (HBSS, 20 mM HEPES, 0.1% BSA, 250 μM IBMX) and 0.1% DMSO. Cells were incubated with compound for 30 minutes at 37° C. (95% O2: 5% CO2) before addition of 5 μL EC80 agonist stimulation (200 nM α-melanocyte stimulating hormone, αMSH, Bachem) and another 30-minute incubation at 37° C. (95% O2: 5% CO2). Intracellular cAMP levels were quantified as per Cisbio's protocol (5 μL of D2 and then 5 μL Cryptate, incubated for 1-2 hours at room temperature). Samples were measured on an Envision plate reader (PerkinElmer Life and Analytical Sciences; excitation, 320 nm; emission, 665 nm/620 nm).
Data were analyzed using the ratio of fluorescence intensity at 620 and 665 nm for each well, extrapolated from the cAMP standard curve to express data as nM cAMP for each well. Data expressed as nM cAMP were then normalized to control wells using Activity Base (IDBS). Zero percent effect (ZPE) was defined as nM of cAMP generated from EC80 agonist stimulation (200 nM αMSH). In the absence of an antagonist control compound, one hundred percent effect (HPE) was defined as nM of cAMP generated from assay buffer/vehicle only.

hMC4R = hMC4R (Homo sapiens (Human), UniProt P32245); assay: In vitro binding affinity assay using hMC4R (radioligand competition binding, CHO cell membranes); settings: competition with [125I]-(Nle4, D-Phe7)-α-MSH 0.5 nM; Ki from IC50 by Cheng-Prusoff; read-out: Ki (nM) geometric mean
Experimental: The binding affinity of test compounds at the α-melanocyte-stimulating hormone receptor (hMC4R) was assessed using a radioligand competition binding assay. Recombinant Chinese hamster ovaries (CHO) cells stably expressing hMC4R (PerkinElmer #ES-191-C) were used for competitive binding. hMC4R membranes were grown in Dulbecco's Modified Essential Medium and Ham's F-12 Medium (DMEM/F12), 10% heat inactivated fetal bovine serum (FBS), 0.4 mg/mL Geneticin and 2 mM L-glutamine. Cell membranes were bulked and frozen until the assay was performed.
Compounds were solubilized in 100% dimethyl sulfoxide (DMSO) to a concentration of 30 mM. A 10-point intermediate dilution series using half log dilutions was created in 100% DMSO with a top concentration of 0.03 mM. The serially diluted compounds were spotted as 1 μL/well, in 96-well Costar 3363 plates. The final compound range in the assay was 300 nM to 0.01 nM with a final DMSO concentration of 1%. Control wells, containing 1 μL of 2 mM ([…]) alpha-melanocyte stimulating hormone (α-MSH-Tocris #2584) was added to the non-specific binding wells and 1 μL 100% DMSO for the total binding control wells. This was followed by the addition of 80 μL of assay buffer [25 mM HEPES, 5 mM MgCl2, 2.5 mM CaCl2, 150 mM NaCl, Complete EDTA-free Protease Inhibitor Tablet (Thermo Scientific #11873580001) and 0.25% BSA]. […] The exact concentration of radioligand used for each experiment was determined by liquid scintillation counting and adjusted if necessary.
Frozen hMC4R cell membranes were thawed and Dounce homogenized. Homogenates were resuspended in assay buffer to a concentration of 2 μg per well. […] The plates were incubated for 2 hours at room temperature. Assay samples were then rapidly filtered through Unifilter-96 GF/B PEI coated filter plates using a filter plate harvester (PerkinElmer) and rinsed with ice-cold wash buffer [25 mM (4-(2-hydroxyethyl)-1-piperazineethanesulfonic acid (HEPES), 1 mM MgCl2, 2.5 mM CaCl2, and 500 mM NaCl]. Filter plates were dried overnight at room temperature. Plates were then bottom-sealed prior to the addition of 50 μL/well Ultima Gold XR scintillation fluid (PerkinElmer 6013111). Plates were then top-sealed, incubated for 60 minutes at room temperature and then the amount of radioactivity present was determined by liquid scintillation counting on a Microbeta Trilux (PerkinElmer #2450-0060).
The raw data (expressed as counts per minute) were analyzed using ActivityBase (IDBS Data Management Software). […] Equilibrium dissociation constant for inhibitor of ligand and receptor interaction (Ki) values were then calculated from the IC50 values using the Cheng-Prusoff equation: Ki=IC50/(1+([L]/Kd)), where [L] is the concentration of the radioligand used in the experiment and Kd is the affinity of the radioligand (determined in separate saturation experiments).

Sequence of human Melanocortin-4 receptor (MC4R) (P32245 whole entry): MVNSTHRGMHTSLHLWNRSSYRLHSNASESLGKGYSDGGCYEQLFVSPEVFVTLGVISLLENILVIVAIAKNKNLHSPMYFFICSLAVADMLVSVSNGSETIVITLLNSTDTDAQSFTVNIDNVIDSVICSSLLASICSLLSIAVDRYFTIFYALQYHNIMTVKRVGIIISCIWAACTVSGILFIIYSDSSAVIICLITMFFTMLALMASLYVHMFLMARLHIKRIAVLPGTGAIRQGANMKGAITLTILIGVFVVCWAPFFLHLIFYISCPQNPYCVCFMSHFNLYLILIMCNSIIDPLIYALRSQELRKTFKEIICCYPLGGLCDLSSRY
Sequence of hMC4R (P32245 whole entry): as above

Compound: COc1cc([C@@H](C)C(=O)N2CC[C@H](Nc3ccc(-c4cn(C)c(C(F)F)n4)c(C)n3)C2)cc(OC)n1 (single isomer, unassigned) [Example 12A]
- Kb [1]: 1.9 nM
- Ki (hMC4R): 0.31 nM

Compound: Cc1nc(N[C@H]2CCN(C(=O)[C@H](F)c3ccccc3)C2)ccc1-c1cn(C)cn1 (single isomer, unassigned) [Example 13B]
- Kb [1]: 2.9 nM
- Ki (hMC4R): 0.34 nM

Compound: COc1cccc([C@@H](C)C(=O)N2CC[C@H](Nc3ccc(-c4cn(C)c(C(C)(F)F)n4)c(C)n3)C2)c1 (single isomer, unassigned) [Example 14B]
- Kb [1]: 14 nM
- Ki (hMC4R): 0.45 nM

Compound: COc1cc([C@@H](C)C(=O)N2CC[C@H](Nc3ccc(-c4cn(C)c(C(C)(F)F)n4)c(C)n3)C2)c(C)cn1 (single isomer, unassigned) [Example 16B]
- Kb [1]: 2.1 nM
- Ki (hMC4R): 0.23 nM

Compound: COc1ccc(C)c([C@@H](C)C(=O)N2CC[C@H](Nc3ccc(-c4cn(C)cn4)c(C)n3)C2)c1 (single isomer, unassigned) [Example 20B]
- Kb [1]: 2.9 nM
- Ki (hMC4R): 0.23 nM

Compound: COc1cc([C@@H](C)C(=O)N2CC[C@H](Nc3ccc(-c4cn(C)c(C(C)(F)F)n4)c(C)n3)C2)c(F)cn1 (single isomer, unassigned) [Example 21B]
- Kb [1]: 2.6 nM
- Ki (hMC4R): 0.48 nM

Compound: COc1cc([C@@H](C)C(=O)N2CC[C@H](Nc3ccc(-c4ncccn4)c(C)n3)C2)c(C)cn1 (single isomer, unassigned) [Example 22A]
- Kb [1]: > 110 nM
- Ki (hMC4R): 120 nM

Compound: COc1cc([C@@H](C)C(=O)N2CC[C@H](Nc3ccc(-c4ncccn4)c(C)n3)C2)c(C)cn1 (single isomer, unassigned) [Example 22B]
- Kb [1]: 8.1 nM
- Ki (hMC4R): 2.1 nM

Compound: COc1cc([C@@H](C)C(=O)N2CC[C@H](Nc3ccc(-c4nc(C(F)F)n(C)n4)c(C)n3)C2)c(Cl)cn1 (single isomer, unassigned) [Example 24B]
- Kb [1]: 0.96 nM
- Ki (hMC4R): 0.49 nM

Compound: COc1cc([C@@H](C)C(=O)N2CC[C@H](Nc3ccc(-c4nc(C(F)(F)F)n(C)n4)c(C)n3)C2)c(Cl)cn1 (single isomer, unassigned) [Example 25B]
- Kb [1]: 1.8 nM
- Ki (hMC4R): 0.49 nM

Compound: COc1cc([C@@H](C)C(=O)N2CC[C@H](Nc3ccc(-c4nnn(C)n4)c(C)n3)C2)c(C)cn1 (single isomer, unassigned) [Example 26A]
- Kb [1]: > 150 nM
- Ki (hMC4R): > 170 nM

Compound: COc1cc([C@@H](C)C(=O)N2CC[C@H](Nc3ccc(-c4nnn(C)n4)c(C)n3)C2)c(C)cn1 (single isomer, unassigned) [Example 26B]
- Kb [1]: 5.6 nM
- Ki (hMC4R): 2.1 nM

Compound: COc1cc([C@@H](C)C(=O)N2CC[C@H](Nc3ccc(-c4ncccn4)c(C)n3)C2)cc(OC(F)F)n1 (single isomer, unassigned) [Example 30A]
- Kb [1]: > 62 nM
- Ki (hMC4R): > 200 nM

Compound: Cc1nc(N[C@H]2CCN(C(=O)[C@H](C)c3ccccc3)C2)ccc1-c1cn(C)c(C(F)F)n1 [Example 11, (2R)-1-[(3S)-3-({5-[2-(difluoromethyl)-1-methyl-1H-imidazol-4-yl]-6-methylpyridin-2-yl}amino)pyrrolidin-1-yl]-2-phenylpropan-1-one]
- Ki (hMC4R): 1.1 nM

Compound: Cc1nc(N[C@H]2CCN(C(=O)C(F)(F)c3ccc(Cl)cc3)C2)ccc1-c1cn(C)c(C(F)F)n1 [Example 23, 2-(4-chlorophenyl)-1-[(3S)-3-({5-[2-(difluoromethyl)-1-methyl-1H-imidazol-4-yl]-6-methylpyridin-2-yl}amino)pyrrolidin-1-yl]-2,2-difluoroethan-1-one]
- Ki (hMC4R): 1.1 nM

Compound: Cc1nc(N[C@H]2CCN(C(=O)Cc3ccc(F)cc3)C2)ccc1-c1noc(C(F)(F)F)n1 [Example 27, 2-(4-fluorophenyl)-1-[(3S)-3-({6-methyl-5-[5-(trifluoromethyl)-1,2,4-oxadiazol-3-yl]pyridin-2-yl}amino)pyrrolidin-1-yl]ethan-1-one]
- Ki (hMC4R): 950 nM

Compound: Cc1nc(N[C@H]2CCN(C(=O)Cc3ccc(F)cc3)C2)ccc1-c1nc2n(n1)CC(F)(F)CO2 [Example 29, 1-[(3S)-3-{[5-(6,6-difluoro-6,7-dihydro-5H-[1,2,4]triazolo[5,1-b][1,3]oxazin-2-yl)-6-methylpyridin-2-yl]amino}pyrrolidin-1-yl]-2-(4-fluorophenyl)ethan-1-one]
- Ki (hMC4R): 6.9 nM

Compound: COc1cc(CC(=O)N2CC[C@H](Nc3ccc(-c4cn(C)cn4)c(C)n3)C2)ccc1C [Example 31, 2-(3-methoxy-4-methylphenyl)-1-[(3S)-3-{[6-methyl-5-(1-methyl-1H-imidazol-4-yl)pyridin-2-yl]amino}pyrrolidin-1-yl]ethan-1-one]
- Ki (hMC4R): 1 nM

Compound: Cc1nc(N[C@H]2CCN(C(=O)Cc3ccc(F)cc3)C2)ccc1-c1cc(C)n(C)n1 [Example 32, 1-[(3S)-3-{[5-(1,5-dimethyl-1H-pyrazol-3-yl)-6-methylpyridin-2-yl]amino}pyrrolidin-1-yl]-2-(4-fluorophenyl)ethan-1-one]
- Ki (hMC4R): 5.5 nM

Compound: Cc1nc(N[C@H]2CCN(C(=O)C(F)(F)c3ccc(Cl)c(Cl)c3)C2)ccc1-c1cn(C)c(C(F)F)n1 [Example 34, 2-(3,4-dichlorophenyl)-1-[(3S)-3-({5-[2-(difluoromethyl)-1-methyl-1H-imidazol-4-yl]-6-methylpyridin-2-yl}amino)pyrrolidin-1-yl]-2,2-difluoroethan-1-one]
- Ki (hMC4R): 0.88 nM

Compound: Cc1nc(N[C@H]2CCN(C(=O)C3(c4ccccc4)CC3(F)F)C2)ccc1-c1cn(C)cn1 (stereo partly drawn) [Example 35, (2,2-difluoro-1-phenylcyclopropyl)[(3S)-3-{[6-methyl-5-(1-methyl-1H-imidazol-4-yl)pyridin-2-yl]amino}pyrrolidin-1-yl]methanone]
- Ki (hMC4R): 0.95 nM
